Peptide text beside a SMILES is read from it.
Assays:
SF767 glioma cells = experiment: Transfection with peptide/pNGVL-Luc complexes, luciferase activity, SF767; assay type: cell-based, human
Description: The formation and transfection of peptide/DNA complexes were carried out according to Patel et al. with slight modifications. […] […] […] The peptide was added dropwise to the DNA solution while vortexing gently (Stuart Scientific, UK). This mixture was allowed to incubate at room temperature (RT) for 30 min. After 30 min, the mixture was diluted to 4 μg/ml DNA with DMEM in the presence of 100 μM of chloroquine, and added to cells.
The human tumor cell lines, dGli36, SF767, U251, A549, HeLa, HepG2, and CNE2 were cultured in DMEM supplemented with 10% fetal bovine serum (FBS) (Hyclone Laboratories, Logan, Utah). For transfection, 3×10^5 cells were seeded into each well of a six-well plate (Nunc, Roskilde, Denmark). After culturing the cells overnight, the cells were washed twice with PBS. Freshly prepared peptide/DNA complexes were added into each well and incubated for 2 h at 37° C. For transfection performed in the presence of serum, FBS was added to a final concentration of 10% directly after addition of peptide/DNA complexes to each well. The reporter gene activity was assayed after 24 h or 48 h.
Cells were harvested from 6-well plates 24 h or 48 h following transfection, washed, resuspended in 120 μl of Tris-HCl (pH 7.8), and freeze-thawed three times. Cell debris was discarded following centrifugation at 14,000 g at 4° C. for 10 min. One hundred μl of the supernatant collected was used for assaying luciferase activity using the Auto-Lumat LB952 luminometer (EG&G Berthold, Bad Wildbad, Germany). Five microliter of the supernatant collected was used for the determination of protein concentration using the Bio-Rad protein assay dye reagent (Bio-Rad Laboratories, Hercules, USA) with the Ultrospec 3000 UV/visible spectrophotometer (Amersham Biosciences AB, Uppsala, Sweden).

[1] = system: non-glioma cell lines (A549, HepG2, HK1); experiment: In vitro fluorescent peptide binding assay, non-glioma cell lines; parameters: species or system human; settings: lissamine-rhodamine conjugated peptide, 100 ng, 20 min, 37° C., FIG. 4
Description: (§1) For in vitro binding assay, 1×10^5 cells were seeded into each well of a 24-well dish (Nunc, Roskilde, Denmark). After culturing the cells overnight at 37° C., the cells were washed once with PBS, followed by incubating in blocking buffer containing PBS with 1% BSA at room temperature for 1 h. The cells were washed twice with PBS. One hundred nanogram of lissamine-rhodamine conjugated peptide (Mimotopes, Victoria, Australia) were added to the blocking buffer containing 0.1% sodium azide, and incubated with the cells at 37° C. for 20 min. This is followed by 5 washes of PBS with 0.1% Tween-20 at RT for 5 min intervals. The cells were then fix in 4% paraformaldehyde, followed by counterstaining using FITC-phalloidin (Sigma-Aldrich Corp., St. Louis, Mo.) and mounted. Images were captured digitally and analyzed using LSM 510 confocal microscope (Carl Zeiss Microscopy, Gottingen, Germany) with appropriate filters.
(§2) To determine the direct specific binding of the (K16)-MG11 peptide to cell surface of glioma cells, (K16)-MG11 peptide was conjugated to lissamine rhodamine. After incubating the conjugated (K16)-MG11 to the various tumor cell lines, SF767, U251MG, M059K, A549, HepG2, and HK1, for 20 minutes at 37° C., the cells were examined under confocal microscopy and the level of fluorescence detected were compared between glioma and non-glioma cells. […]

[2] = system: SF767, U251MG, and M059K human glioma cell lines; experiment: In vitro fluorescent peptide binding assay, glioma cell lines; settings: lissamine-rhodamine conjugated peptide, 100 ng, 20 min, 37° C., FIG. 4
Description: as §1, §2

SF767 glioma xenograft = experiment: In vivo fluorescent peptide binding assay, intratumoral injection; settings: SCID mice, 100 μg lissamine-rhodamine conjugated peptide intratumorally, 20 min, FIG. 6
Description: SF767-tumor bearing mice were randomized into 2 groups (2 per group). Fifty microliter of 100 μg of lissamine rhodamine conjugated (K16)-MG11 or (K16)-H42 was injected intratumorally into 2 mice harboring the tumor, and allowed to circulate for 20 min. After 20 min, the mice were anethesized and perfused through the heart with PBS followed by 4% paraformaldehyde. The tumor were dissected and prepared for cryostat sections. The sections were then counterstained in FITC-phalloidin and mounted. Images were examined using LSM 510 meta confocal microscope (Carl Zeiss Microscopy, Göttingen, Germany) with appropriate filters.
After 20 min of circulation, the mouse bearing the SF767 glioma xenograft was perfused and tumor was harvested. The tumor sections were counterstained with FITC-labeled phalloidin, which stains F-actin, to determine the cell surface.

other glioma cells = settings: Spear et al., 2001; cited from earlier work
U87MG glioma cell line = settings: Spear et al., 2001; cited from earlier work

For `CC[C@H](C)[C@H](NC(=O)[C@H](CO)NC(=O)[C@H](CCCCN)NC(=O)[C@H](CCCCN)NC(=O)[C@H](CCCCN)NC(=O)[C@H](CCCCN)NC(=O)[C@H](CCCCN)NC(=O)[C@H](CCCCN)NC(=O)[C@H](CCCCN)NC(=O)[C@H](CCCCN)NC(=O)[C@H](CCCCN)NC(=O)[C@H](CCCCN)NC(=O)[C@H](CCCCN)NC(=O)[C@H](CCCCN)NC(=O)[C@H](CCCCN)NC(=O)[C@H](CCCCN)NC(=O)[C@H](CCCCN)NC(=O)[C@@H](N)CCCCN)C(=O)N1CCC[C@H]1C(=O)N[C@H](C(=O)N[C@@H](CCCCN)C(=O)N[C@@H](Cc1ccccc1)C(=O)N[C@@H](CC(N)=O)C(=O)N[C@@H](CCCCN)C(=O)N1CCC[C@H]1C(=O)N[C@@H](CC(C)C)C(=O)N[C@@H](Cc1c[nH]c2ccccc12)C(=O)N[C@@H](C)C(=O)N[C@H](C(=O)N[C@@H](Cc1ccccc1)C(=O)N1CCC[C@H]1C(=O)N1CCC[C@H]1C(=O)N[C@@H](CCCNC(=N)N)C(=O)N1CCC[C@H]1C(=O)N1CCC[C@H]1C(=O)N[C@@H](Cc1c[nH]c2ccccc12)C(=O)N[C@@H](CC(C)C)C(=O)O)[C@@H](C)O)C(C)C` [(K16)-MG11, poly-L-lysine-SIPVKFNKP-MG11] (H-KKKKKKKKKKKKKKKKSIPVKFNKPLWATFPPRPPWL-OH), which “toxicity to treated cells” value (SF767 glioma cells; peptide: DNA ratios of 10:1 and 20:1) is on record?
Its value is “toxicity could be detected”.

For poly-L-lysine-SIPVKFNKP-H42 [(K16)-H42], which “cell surface fluorescence (confocal microscopy)” value [1] is on record?
The value was “non-specific red fluorescence was observed in all cell lines”.

What about the “cell surface fluorescence (confocal microscopy)” value [2] of the same compound?
Its value is “non-specific red fluorescence was observed in all cell lines”.

And the “red fluorescence in tumor cryostat sections” value (SF767 glioma xenograft)?
The value was “red fluorescent was not detected”.

What about the luciferase expression (SF767 glioma cells; complex with pNGVL-Luc, chloroquine, 48 h post transfection, FIG. 3C) of the same compound?
Its luciferase expression is 8444 RLU/μg.

And the “luciferase expression at various peptide to DNA ratios” value (SF767 glioma cells; ratios 1:2, 2:1, 10:1, 20:1, 24 h post-transfection, FIG. 3A)?
Its value is “no significant binding could be detected”.

With MCPKHPLGC as the compound, how does the binding (other glioma cells) read?
Its binding is “did not bind”.

What about the binding specificity (U87MG glioma cell line) of the same compound?
The binding specificity was “specific for U87MG glioma cell line”.
